Reference: patent US20140343014A1, “COMBINATION OF A CERTAIN DPP-4 INHIBITOR AND VOGLIBOSE” (BOEHRINGER INGELHEIM INTERNATIONAL GMBH, priority 2013, published 2014)
Entries after “also recorded” stand apart in the source; their conditions may differ.

Experiment: Pharmacokinetics of BI 1356 in patients with type 2 diabetes, multiple oral doses once daily for 12 days
Conditions: therapeutic oral dose levels; listed as BI 1356

CC#CCn1c(N2CCC[C@@H](N)C2)nc2c1c(=O)n(Cc1nc(C)c3ccccc3n1)c(=O)n2C [linagliptin]
route of excretion: mainly excreted via the liver; also recorded: primarily excreted unchanged via the bile
